The results in this text go back to US11667602B2, “Compounds and their use” (AstraZeneca AB, priority 2020, dated 2023).

The target in this assay is T1, human RXFP1 (Homo sapiens, UniProt Q9HBX9).
T1 sequence (Q9HBX9 1-757): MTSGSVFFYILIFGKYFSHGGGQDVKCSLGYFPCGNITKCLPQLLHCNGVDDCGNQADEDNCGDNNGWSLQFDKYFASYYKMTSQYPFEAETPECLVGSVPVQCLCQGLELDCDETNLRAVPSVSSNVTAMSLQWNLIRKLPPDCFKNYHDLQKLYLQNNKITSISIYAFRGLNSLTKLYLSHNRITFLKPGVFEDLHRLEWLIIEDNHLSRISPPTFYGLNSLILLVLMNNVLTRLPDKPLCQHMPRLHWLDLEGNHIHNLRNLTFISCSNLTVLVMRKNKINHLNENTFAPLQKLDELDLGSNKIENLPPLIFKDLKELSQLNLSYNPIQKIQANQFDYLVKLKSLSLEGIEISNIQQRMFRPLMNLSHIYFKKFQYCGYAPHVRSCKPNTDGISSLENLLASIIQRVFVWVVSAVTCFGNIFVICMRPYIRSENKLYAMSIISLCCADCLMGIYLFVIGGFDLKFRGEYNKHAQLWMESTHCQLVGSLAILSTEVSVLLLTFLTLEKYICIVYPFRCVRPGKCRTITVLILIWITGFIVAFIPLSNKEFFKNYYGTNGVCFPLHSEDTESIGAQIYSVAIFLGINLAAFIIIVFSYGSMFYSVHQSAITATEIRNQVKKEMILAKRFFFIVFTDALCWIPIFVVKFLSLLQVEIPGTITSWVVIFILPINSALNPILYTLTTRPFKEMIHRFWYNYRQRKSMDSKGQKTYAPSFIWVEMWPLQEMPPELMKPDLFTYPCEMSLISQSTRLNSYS
Nature of the assay: RXFP1 Hu cAMP (Test A). Also on record: expressed in transfected cells; host or cells: Jump-In T-REx CHO-K1 cells (ThermoFisher), induced with 10 ng/ml doxycycline for 24 h. Format: cell-based. The method, boiled down: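 CHO-K1 (Jump-In T-REx), RXFP1 induced w/ 10 ng/ml doxycycline 24 h, cryopreserved. 0.5 mM IBMX final. cAMP by HTRF, 2 h RT, std curve.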

The mark [1] stands for this setting: RXFP1 Hu cAMP, read-out: Test A EC50.

Where two headings read alike, the source gives them in different places. A value given as a limit tells only on which side of the number the result lay.

The EC50 is the concentration needed to bring the measured effect to its halfway point. For the compound `COc1cc(F)c(-c2cccc(C(=O)O)c2)cc1C(=O)N[C@@H]1CCC[C@@H]1C(=O)Nc1cccc(S(=O)(=O)C(F)(F)F)c1` [Example 317, 2′-Fluoro-4′-methoxy-5′-(((1R,2S)-2-((3-((trifluoromethyl)sulfonyl)phenyl)carbamoyl)cyclopentyl)carbamoyl)-[1,1′-biphenyl]-3-carboxylic acid], under “RXFP1 Hu cAMP”, the “Test A Sinf” value is listed as 75%. In addition, under setting [1], the EC50 stood at 1200 nM.

For the compound `COc1cc(F)c(-c2nnc(CCC(=O)O)s2)cc1C(=O)N[C@H]1C(C(=O)Nc2cccc(S(=O)(=O)C(F)(F)F)c2)[C@@H]2CC[C@H]1C2` (stereo partly drawn) [Example 322, 3-(5-(2-Fluoro-4-methoxy-5-(((1S,2R,3S,4R)-3-((3-((trifluoromethyl)sulfonyl)phenyl)carbamoyl)bicyclo[2.2.1]heptan-2-yl)carbamoyl)phenyl)-1,3-,4-thiadiazol-2-yl)propanoic acid], the “Test A Sinf” value (RXFP1 Hu cAMP) worked out at 107%. In addition, the EC50 under setting [1] turned out to be 800 nM.

Turning to `COc1cc(F)c(-c2ccc(OCC(=O)O)cc2)cc1C(=O)N[C@@H]1[C@H]2CC[C@H](C2)[C@@H]1C(=O)NCC(C)(C)C` [Example 330, 2-((2′-Fluoro-4′-methoxy-5′-(((1S,2R,3S,4R)-3-(neopentylcarbamoyl)bicyclo[2.2.1]heptan-2-yl)carbamoyl)-[1,1′-biphenyl]-4-yl)oxy)acetic acid], the “Test A Sinf” value (RXFP1 Hu cAMP) is 97%. Also, under setting [1], the EC50 worked out at 530 nM.

`COc1cc(F)c(O[C@H]2CC[C@@](C)(C(=O)O)CC2)cc1C(=O)N[C@@H]1CCO[C@@H]1C(=O)Nc1cccc(S(=O)(=O)C(F)(F)F)c1` [Example 356]: the “Test A Sinf” value (RXFP1 Hu cAMP) came to 119%.

On to `COc1cc(F)c(O[C@H]2CC[C@@](C)(C(=O)O)CC2)cc1C(=O)N[C@@H]1CCCO[C@@H]1C(=O)Nc1cccc(S(=O)(=O)C(F)(F)F)c1` [Example 357], for which, where the note is “RXFP1 Hu cAMP”, the “Test A Sinf” value is 101%. Moreover, under setting [1], the 50% effective concentration (EC50) worked out at 5400 nM.

In the case of `COc1cc(C#N)c(O[C@H]2CC[C@@](C)(C(=O)O)CC2)cc1C(=O)N[C@@H]1CCCC[C@@H]1C(=O)NCC1(C)CCC1` [Example 361], the “Test A Sinf” value (RXFP1 Hu cAMP) came to 91%. Besides, the EC50 under setting [1] is 780 nM.

Regarding `COc1cc(F)c(O[C@H]2CC[C@@](C)(C(=O)O)CC2)cc1C(=O)N[C@@H]1[C@@H]2CC[C@@H](C2)[C@@H]1C(=O)NCC(C)(C)C` [Example 370], for the setting “RXFP1 Hu cAMP”, the “Test A Sinf” value was 102%. The EC50 (Test A EC50, RXFP1 Hu cAMP) was 24 nM.

For the compound `COc1cc(C(F)(F)F)c(O[C@H]2CC[C@@](C)(C(=O)O)CC2)cc1C(=O)N[C@@H]1[C@H]2CC[C@H](C2)[C@@H]1C(=O)NCC1(C)CCC1` [Example 372], for the setting “RXFP1 Hu cAMP”, the “Test A Sinf” value amounted to 96%. This compound yielded an EC50 (Test A EC50, RXFP1 Hu cAMP) of 21 nM.

Regarding `CC1(CNC(=O)[C@H]2[C@@H]3CC[C@@H](C3)[C@H]2NC(=O)c2cc(O[C@H]3CC[C@@](C)(C(=O)O)CC3)c(F)cc2C#N)CCC1` [Example 377], the “Test A Sinf” value (RXFP1 Hu cAMP) was determined as 100%.

`Cn1ncc2cc(C(=O)N[C@@H]3[C@H]4CC[C@H](C4)[C@@H]3C(=O)NCC3(C)CCC3)cc(O[C@H]3CC[C@@](C)(C(=O)O)CC3)c21` [Example 378]: under setting [1], the EC50 is more than 2500 nM.

For the compound `Cn1ncc2c(O[C@H]3CC[C@@](C)(C(=O)O)CC3)cc(C(=O)N[C@@H]3[C@H]4CC[C@H](C4)[C@@H]3C(=O)NCC3(C)CCC3)cc21` [Example 379], where the note is “RXFP1 Hu cAMP”, the “Test A Sinf” value turned out to be 100%. Further, the EC50 under setting [1] was 480 nM.

In the case of `COCc1cc(F)c(O[C@H]2CC[C@@](C)(C(=O)O)CC2)cc1C(=O)N[C@@H]1[C@H]2CC[C@H](C2)[C@@H]1C(=O)NCC1(C)CCC1` [Example 380], the EC50 under setting [1] is more than 2500 nM.

For the compound `COc1cc(C)c(O[C@H]2CC[C@@](C)(C(=O)O)CC2)cc1C(=O)N[C@@H]1[C@H]2CC[C@H](C2)[C@@H]1C(=O)NC12CC(F)(C1)C2` [Example 382], the “Test A Sinf” value (RXFP1 Hu cAMP) came out at 90%. Moreover, under setting [1], the EC50 was found to be 130 nM.

Turning to `CCc1cc(OC)c(C(=O)N[C@@H]2[C@H]3CC[C@H](C3)[C@@H]2C(=O)NC23CC(F)(C2)C3)cc1O[C@H]1CC[C@@](C)(C(=O)O)CC1` [Example 383], where the note is “RXFP1 Hu cAMP”, the “Test A Sinf” value amounted to 89%. Under setting [1], the EC50 was 120 nM.

In the case of `CCOc1cc(F)c(O[C@H]2CC[C@@](C)(C(=O)O)CC2)cc1C(=O)N[C@@H]1[C@H]2CC[C@H](C2)[C@@H]1C(=O)NC12CC(F)(C1)C2` [Example 384], the “Test A Sinf” value (RXFP1 Hu cAMP) worked out at 108%. Besides, under setting [1], the EC50 came to 130 nM.

On to `CC[C@]1(C(=O)O)CC[C@@H](Oc2cc(C(=O)N[C@@H]3[C@H]4CC[C@H](C4)[C@@H]3C(=O)NCC(C)(C)C)c(OC)cc2F)CC1` [Example 386], for which, where the note is “RXFP1 Hu cAMP”, the “Test A Sinf” value turned out to be 114%. Under setting [1], the EC50 stood at 70 nM.

As for `COc1c(F)cc(O[C@H]2CC[C@@](C)(C(=O)O)CC2)cc1C(=O)N[C@@H]1[C@H]2CC[C@H](C2)[C@@H]1C(=O)NC12CC(F)(C1)C2` [Example 390], the “Test A Sinf” value (RXFP1 Hu cAMP) is 95%. The half-maximal effective concentration (EC50) under setting [1] worked out at 180 nM.

For `COCCOc1cc(F)c(O[C@H]2CC[C@@](C)(C(=O)O)CC2)cc1C(=O)N[C@@H]1[C@H]2CC[C@H](C2)[C@@H]1C(=O)NCC1(C)CCC1` [Example 391], the “Test A Sinf” value (RXFP1 Hu cAMP) was 99%. Further, the concentration giving a half-maximal response (EC50) under setting [1] stood at 110 nM.

With `CC1(CNC(=O)[C@H]2[C@@H]3CC[C@@H](C3)[C@H]2NC(=O)c2cc(O[C@H]3CC[C@@](C)(C(=O)O)CC3)c(F)cc2Cl)CCC1` [Example 398, (1S,4s)-4-(4-Chloro-2-fluoro-5-(((1S,2R,3S,4R)-3-(((1-methylcyclobutyl)methyl)carbamoyl)bicyclo[2.2.1]heptan-2-yl)carbamoyl)phenoxy)-1-methylcyclohexane-1-carboxylic acid], the “Test A Sinf” value (RXFP1 Hu cAMP) is given as 90%. In addition, the EC50 under setting [1] was 130 nM.

Take `CC1(CNC(=O)[C@H]2[C@@H]3CC[C@@H](C3)[C@H]2NC(=O)c2ccc(F)c(O[C@H]3CC[C@@](C)(C(=O)O)CC3)c2)CCC1` [Example 400]: the “Test A Sinf” value (RXFP1 Hu cAMP) is given as 91%. A half-maximal response (Test A EC50, RXFP1 Hu cAMP) (EC50) required 180 nM.

Take `COCc1cc(OC)c(C(=O)N[C@@H]2[C@H]3CC[C@H](C3)[C@@H]2C(=O)NCC2(C)CCC2)cc1O[C@H]1CC[C@@](C)(C(=O)O)CC1` [Example 402]: the “Test A Sinf” value (RXFP1 Hu cAMP) is recorded as 131%. Where the note is “Test A EC50, RXFP1 Hu cAMP”, the 50% effective concentration (EC50) amounted to 620 nM.

Regarding `CC1(CNC(=O)[C@H]2[C@@H]3CC[C@@H](C3)[C@H]2NC(=O)c2cc(O[C@H]3CC[C@@](C)(C(=O)O)CC3)cc3cccnc23)CCC1` [Example 407], the “Test A Sinf” value (RXFP1 Hu cAMP) came to 99%. Further, the EC50 under setting [1] worked out at 260 nM.

Consider `COc1cc(F)c(O[C@H]2CC[C@@](F)(C(=O)O)CC2)cc1C(=O)N[C@@H]1[C@H]2CC[C@H](C2)[C@@H]1C(=O)NCC1(C)CCC1` [Example 415], for which the “Test A Sinf” value (RXFP1 Hu cAMP) is 103%.

Turning to `COc1cc(F)c(O[C@H]2CC[C@@](C)(c3noc(=O)[nH]3)CC2)cc1C(=O)N[C@@H]1[C@H]2CC[C@H](C2)[C@@H]1C(=O)NCC1(C)CCC1` [Example 418, (1R,2S,3R,4S)-3-(4-fluoro-2-methoxy-5-(((1s,4S)-4-methyl-4-(5-oxo-4,5-dihydro-1,2,4-oxadiazol-3-yl)cyclohexyl)oxy)benzamido)-N-((1-methylcyclobutyl)methyl)bicyclo[2.2.1]heptane-2-carboxamide], for the setting “RXFP1 Hu cAMP”, the “Test A Sinf” value was determined as 100%. A half-maximal response (Test A EC50, RXFP1 Hu cAMP) (EC50) required 64 nM.

On to `COc1cc(F)c(O[C@H]2CC[C@@](C)(C(N)=O)CC2)cc1C(=O)N[C@@H]1[C@@H]2CC[C@@H](C2)[C@@H]1C(=O)NCC1(C)CCC1` [Example 421, (1S,2S,3R,4R)-3-(5-(((1s,4S)-4-Carbamoyl-4-methylcyclohexyl)oxy)-4-fluoro-2-methoxybenzamido)-N-((1-methylcyclobutyl)methyl)bicyclo[2.2.1]heptane-2-carboxamide], for which, where the note is “RXFP1 Hu cAMP”, the “Test A Sinf” value is listed as 96%. Besides, under setting [1], the EC50 is 44 nM.

For `COc1cc(F)c(O[C@H]2CC[C@](CC#N)(C(=O)O)CC2)cc1C(=O)N[C@@H]1[C@H]2CC[C@H](C2)[C@@H]1C(=O)NCC1(C)CCC1` [Example 423, (1R,4r)-1-(Cyanomethyl)-4-(2-fluoro-4-methoxy-5-(((1S,2R,3S,4R)-3-(((1-methylcyclobutyl)methyl)carbamoyl)bicyclo[2.2.1]heptan-2-yl)carbamoyl)phenoxy)cyclohexane-1-carboxylic acid], where the note is “RXFP1 Hu cAMP”, the “Test A Sinf” value is 89%.

On to `COc1cc(C#N)c(OCCCC(C)(C)C(=O)O)cc1C(=O)N[C@@H]1[C@H]2CC[C@H](C2)[C@@H]1C(=O)NCC1(C)CCC1` [Example 431], for which the “Test A Sinf” value (RXFP1 Hu cAMP) was found to be 115%. In addition, the EC50 under setting [1] worked out at 130 nM.

Regarding `COc1cc(F)c(OCCCCCCCCC(=O)O)cc1C(=O)N[C@@H]1[C@H]2CC[C@H](C2)[C@@H]1C(=O)Nc1cccc(S(=O)(=O)C(F)(F)F)c1` [Example 437], the “Test A Sinf” value (RXFP1 Hu cAMP) is on record as 104%. Also, the EC50 under setting [1] was determined as 950 nM.
